Structures can show the parent of a compound that is named as a salt.
Target: T1, His-PtcC (Ptc C-terminal tail) (Drosophila melanogaster, UniProt P18502)
T1 sequence (P18502 1105-1286): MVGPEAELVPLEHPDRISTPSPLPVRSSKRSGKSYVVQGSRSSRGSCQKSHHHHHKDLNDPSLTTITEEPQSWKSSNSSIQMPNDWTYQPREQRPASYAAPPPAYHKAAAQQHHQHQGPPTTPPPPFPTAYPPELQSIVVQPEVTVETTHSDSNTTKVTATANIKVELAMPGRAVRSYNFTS
Assay: solid-phase lipid dot blot
Assay type: binding
Settings: 2 ul of 50 uM lipid on PVDF; 1 ug/ml protein in PBS; 4 C overnight

CCCCCCCCCCCCCCCCCC(=O)OC[C@H](COP(=O)(O)O)OC(=O)CCCCCCCCCCCCCCCCC [DSPA, 1,2-Distearoyl-sn-glycero-3-phosphate (sodium salt)]
solid-phase lipid dot blot: His-PtcC interacted only with DSPA and DPPA, both of which are saturated forms of PA

Source: PMC10661859 (Science signaling, 2023)
